Read-outs that look alike come from different tables or passages of the source.
Columns and labels:
[1] = system: human mammary cells MCF-7; assay: Effect on the proliferation of mammary cells (MCF-7, DNA quantitation after 7 days); assay type: cell-based; set-up: key: The molecules inducing a cellular growth identical to that observed with the solvent alone are classed “inactivated”; Inhibitor: those inducing cellular growth lower than that observed with the solvent are classed “inhibitor”; *Mixed: slight agonist activity in very weak concentrations and inhibitory activity in stronger concentrations; settings: MCF-7 cells in steroid-free medium, 7 days of culture, DNA analysis; compared with oestradiol at 10^-10M = 100% agonist activity
From the text: 1—Effect on the Proliferation of Mammary Cells The proliferative activity of the molecules is studied comparatively with that of oestradiol on the human mammary cells MCF-7 in culture. To highlight the agonist effect of oestradiol and/or the molecules tested, the culture medium for the maintenance of the cells (rich in growth factors and in steroids) is replaced by a more impoverished medium, amongst others lacking in steroids (DMEM supplemented by 5% of serum with steroid removed and without phenol red). The cells undergo this deprivation two days before the start of the trial. After 7 days of culture in the presence of the products to be studied, the cellular proliferation is evaluated by quantitive analysis of the DNA. In each trial, the effect of the oestradiol at 10^−10M (cellular growth in the presence of oestradiol less cellular growth in the presence of solvent) determines the agonist activity at 100%. The activity of the molecules is evaluated in comparison to this internal control. The molecules inducing a cellular growth identical to that observed with the solvent alone are classed “inactivated”, those inducing cellular growth lower than that observed with the solvent are classed “inhibitor”.

[2] = molecular target: T1, recombinant human oestrogen receptor (Homo sapiens, UniProt P03372); assay: Affinity for the human oestrogen receptor (REH), displacement of tritiated oestradiol, relative affinity ARL; assay type: binding
T1 construct: comprising the coding region for the human oestrogen receptor of wild type; made in house; host or cells: SF9 insect cells (ATCC CRL1711), baculovirus
T1 sequence (P03372 1-595): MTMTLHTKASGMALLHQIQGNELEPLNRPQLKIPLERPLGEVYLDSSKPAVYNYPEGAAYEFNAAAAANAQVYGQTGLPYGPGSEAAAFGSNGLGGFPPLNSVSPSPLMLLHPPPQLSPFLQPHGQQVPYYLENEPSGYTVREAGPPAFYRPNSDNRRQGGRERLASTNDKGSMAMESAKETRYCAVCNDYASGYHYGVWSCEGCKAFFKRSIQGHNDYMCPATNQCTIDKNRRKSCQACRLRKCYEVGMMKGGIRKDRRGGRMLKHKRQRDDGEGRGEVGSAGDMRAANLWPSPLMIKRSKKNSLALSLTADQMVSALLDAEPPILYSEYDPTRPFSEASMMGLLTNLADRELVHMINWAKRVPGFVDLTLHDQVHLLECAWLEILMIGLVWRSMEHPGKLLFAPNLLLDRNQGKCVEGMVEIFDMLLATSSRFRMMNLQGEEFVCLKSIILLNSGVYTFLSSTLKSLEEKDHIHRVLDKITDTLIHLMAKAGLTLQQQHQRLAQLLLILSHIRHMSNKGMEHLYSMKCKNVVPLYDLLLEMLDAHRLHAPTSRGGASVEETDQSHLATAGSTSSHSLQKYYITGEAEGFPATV
From the text: 2—Affinity of the Human Oestrogen Receptor (REH)
A cytosolic extract of SF9 cells containing the recombinant human oestrogen receptor is obtained by over-expression in an insect-Baculo-viros system of cells, according to the general methodology described by N. R. WEBB et al. (Journal of Methods in cell and Molecular Biology, (1990) vol 2 n°4, 173-188) and whose application is described for the expression of human hormonal receptors, for example the human glucocorticoid receptor (G.SRINIVASAN et al. Molecular Endocrinology (1990) vol 4 n°2 209-216).
The BaculoGold Transfection Kit (PharMingen, reference 21000K) is used to generate the recombinant baculovirus containing the fragment of DNAc described in the expression vector HEGO by L. TORA et al. (The EMBO Journal (1989) vol 8 n°7 1981-1986) comprising the coding region for the human oestrogen receptor of wild type with glycine in position 400.
The recombinant virus obtained in this way is used to express the […] receptor in the cells of insects SF9 (ATCC CRL1711), according to the known methodology previously cited.
2×10^7 SF9 cells are cultivated in a 175 cm^2 “Falcon” flask in TNM-FH “SIGMA” medium supplemented with 10% of foetal calf serum (FCS) and 50 micrograms/ml of gentamycine. After infection then incubation at 27° C. for 40 to 42 hours, the cells are lysed in 1 ml of lyse buffer (Tris 20 mM-HCl pH8, EDTA 0.5 mM, DTT 2mM, Glycerol 20%, KCl 400 mM) by a freezing-defrosting cycle that is repeated twice more. The supernatant, containing the recombinant human oestrogen receptor is preserved in liquid nitrogen in 0.5 ml amounts.
The supernatant is incubated at 0° C. for 24 hours with a consistent concentration (T) of oestradiol tritiated in the presence of growing concentrations either of cold oestradiol (0-1000×10^−9M), or of cold product to be tested (0-25000×10^−9M). The concentration of linked triated oestradiol (B) is then measured in each incubation by the dextran carbon adsorption technique.
3—Calculation of the Affinity Relative to Linking (ARL)
The 2 following curves are plotted: the percentage of 100×B/BO linked tritiated hormone in comparison to the logarithm of the concentration of cold reference hormone or in comparison to the logarithm of the concentration of cold product tested.
The soundness of the following equation is determined:
B0=Concentration of the linked tritiated hormone in the absence of any cold product,
B=Concentration of the linked tritiated hormone in the presence of an X concentration of cold product,
Bmin=Concentration of linked tritiated hormone for an incubation of this tritiated hormone in concentration (T) in the presence of a large excess of cold reference hormone (1000×10^−9) for human receptor.
The intersections of the right angle I50 and the curves, make it possible to evaluate the concentration of cold reference hormone (CH) and the tested cold product (CX) which inhibit 50% of the bond of the tritiated hormone on the receptor.
The relative affinity of the link (ARL) of the tested product is determined by the equation: […]

[3] = incubation at 0° C. for 24 hours with tritiated oestradiol, ARL=100(CH)/(CX), oestradiol = 100

Row | SMILES | ACTIVITY (proliferative activity on MCF-7 cells) [1] | Relative affinity of the link (ARL), EH oestradiol = 100, 24 H [2] | Relative affinity of the link (ARL), EH oestradiol = 100, 24 H [2, 3]
1 | C[C@]12C[C@H](c3ccc(CCCN4CCCC4)cc3)[C@@H]3c4ccc(O)cc4CC[C@H]3[C@@H]1CC[C@@H]2O [Example 7, 11β-[4-[3-(1-pyrrolidinyl)propyl]phenyl]-estra-1,3,5(10)-trien-3,17β-diol] | Inhibitor | 59 | –
2 | C[C@]12C[C@H](c3ccc(CCCN4CCCCC4)cc3)[C@@H]3c4ccc(O)cc4CC[C@H]3[C@@H]1CC[C@@H]2O [Example 9] | Inhibitor | – | 28
3 | C[C@]12C[C@H](c3ccc(CCCN4CCCCC4)cc3)[C@@H]3c4ccc(O)c(Cl)c4CC[C@H]3[C@@H]1CC[C@@H]2O [Example 11, 4-chloro-11β-[4-[3-(1-piperidinyl)propyl]phenyl]-estra-1,3,5(10) -trien-3,17β-diol] | Mixed | 14 | –
4 | CCN(CC)CCCc1ccc([C@H]2C[C@]3(C)[C@@H](O)CC[C@H]3[C@@H]3CCc4c(ccc(O)c4Cl)[C@H]32)cc1 [Example 12, 4-chloro-11β-[4-[3-(1-diethylamino)propyl]phenyl]-estra-1,3,5(10)-trien-3,17β-diol] | Inhibitor | – | 28
5 | CC1(O)CCC2C3CCc4cc(O)ccc4C3C(c3ccc(CCCN4CCCCC4)cc3)CC21C (stereo not drawn) [Example 13, 17α-methyl-11β-[4-[3-(1-piperidininyl)propyl]phenyl]-estra-1,3,5(10)-trien-3,17β-diol] | Inhibitor | – | 42
6 | C[C@]12CC[C@@H]3c4ccc(O)cc4CC[C@H]3[C@@H]1CC[C@@H]2O [Oestradiol, reference compound] | Agonist | – | –

Source: patent US6479476B1, “19-nor steroids substituted in position 11β, preparation method and intermediates, application as medicines and pharmaceutical compositions containing them” (Aventis Pharma S.A., priority 1997, dated 2002)
